Assay results published in the NIST ThermoML archive (doi:10.1016/j.tca.2007.05.014).

Tests used:
[1] = Crystal; Adiabatic calorimetry
[2] = Molar enthalpy of transition or fusion; settings: Crystal; Adiabatic calorimetry
[3] = molar heat capacity at constant pressure; settings: 101.33 kPa, Vacuum adiabatic calorimetry

c1ccc(CSSCc2ccccc2)cc1 [1,4-diphenyl-2,3-dithiabutane]
Settings | Molar enthalpy of transition or fusion [kcal/mol] | Triple point temperature [K]
[1] | – | 341.72
[2] | 10.75 | –

[3]
Settings | molar heat capacity at constant pressure [J/K/mol]
80 K, Crystal | 108.82
80.3 K, Crystal | 108.33
84.06 K, Crystal | 111.79
85 K, Crystal | 111.44
87.01 K, Crystal | 113.48
90 K, Crystal | 116.01
90.01 K, Crystal | 116.34
92.93 K, Crystal | 118.76
95 K, Crystal | 122.1
95.91 K, Crystal | 122.02
99.41 K, Crystal | 127.8
100 K, Crystal | 129.33
103.24 K, Crystal | 135.01
105 K, Crystal | 137.39
106.95 K, Crystal | 141.28
110 K, Crystal | 145.99
110.69 K, Crystal | 147.39
114.47 K, Crystal | 153.91
115 K, Crystal | 154.9
118.16 K, Crystal | 160.1
120 K, Crystal | 163.94
121.87 K, Crystal | 169.57
125 K, Crystal | 172.98
125.68 K, Crystal | 176.87
129.35 K, Crystal | 179.77
130 K, Crystal | 181.89
132.96 K, Crystal | 185.92
135 K, Crystal | 190.59
136.61 K, Crystal | 192.1
140 K, Crystal | 199.02
140.35 K, Crystal | 197.02
144.38 K, Crystal | 205.28
145 K, Crystal | 207.16
147.99 K, Crystal | 211.7
150 K, Crystal | 214.97
151.7 K, Crystal | 217.62
155 K, Crystal | 222.48
155.35 K, Crystal | 222.51
158.92 K, Crystal | 228.58
160 K, Crystal | 229.68
162.44 K, Crystal | 233.74
165 K, Crystal | 236.6
165.91 K, Crystal | 238.97
169.42 K, Crystal | 243.63
170 K, Crystal | 243.29
172.99 K, Crystal | 248.31
175 K, Crystal | 249.78
176.5 K, Crystal | 252.64
179.96 K, Crystal | 257.05
180 K, Crystal | 256.1
183.38 K, Crystal | 260.66
185 K, Crystal | 262.31
186.84 K, Crystal | 265.34
190 K, Crystal | 268.46
190.36 K, Crystal | 269.4
193.83 K, Crystal | 273.35
195 K, Crystal | 274.58
197.26 K, Crystal | 277.29
200 K, Crystal | 280.71
200.65 K, Crystal | 280.28
204 K, Crystal | 284.27
205 K, Crystal | 286.91
207.4 K, Crystal | 288.01
210 K, Crystal | 293.18
210.85 K, Crystal | 291.95
214.25 K, Crystal | 296.05
215 K, Crystal | 299.57
217.6 K, Crystal | 300.68
220 K, Crystal | 306.1
220.9 K, Crystal | 305.02
224.17 K, Crystal | 310.55
225 K, Crystal | 312.77
227.41 K, Crystal | 316.71
230 K, Crystal | 319.61
230.64 K, Crystal | 324.45
234.1 K, Crystal | 331.98
235 K, Crystal | 326.59
237.58 K, Crystal | 333.36
240 K, Crystal | 333.73
240.9 K, Crystal | 338.86
244.3 K, Crystal | 341.63
245 K, Crystal | 341.01
247.7 K, Crystal | 342.44
250 K, Crystal | 348.41
251 K, Crystal | 347.57
254.37 K, Crystal | 353.48
255 K, Crystal | 355.91
257.79 K, Crystal | 359.5
260 K, Crystal | 363.48
261.22 K, Crystal | 363.54
264.69 K, Crystal | 369.67
265 K, Crystal | 371.1
268.17 K, Crystal | 374.81
270 K, Crystal | 378.73
271.64 K, Crystal | 381.1
275 K, Crystal | 386.35
275.11 K, Crystal | 386.26
278.65 K, Crystal | 391.99
280 K, Crystal | 393.93
282.26 K, Crystal | 396.6
285 K, Crystal | 401.44
285.84 K, Crystal | 402.1
289.39 K, Crystal | 410.38
290 K, Crystal | 408.86
292.9 K, Crystal | 417.2
295 K, Crystal | 416.2
296.45 K, Crystal | 417.2
298.15 K, Crystal | 420.77
299.98 K, Crystal | 422.24
300 K, Crystal | 423.44
303 K, Crystal | 427.75
303.49 K, Crystal | 427.76
307 K, Crystal | 437.99
310.49 K, Crystal | 432.45
313.97 K, Crystal | 443.61
317.47 K, Crystal | 440.2
320.92 K, Crystal | 443.39
324.15 K, Crystal | 448.33
327.24 K, Crystal | 479.87
330.68 K, Crystal | 494.5
334.08 K, Crystal | 565.94
337.09 K, Crystal | 842.59
339.29 K, Crystal | 2123.3
340.75 K, Crystal | 6689.9
344.92 K, Liquid | 1138.3
350.93 K, Liquid | 545.43
355 K, Liquid | 545.41
355.68 K, Liquid | 550.14
359.31 K, Liquid | 554.64
360 K, Liquid | 555.11
362.99 K, Liquid | 559.12
365 K, Liquid | 561.67
366.65 K, Liquid | 562.71
370 K, Liquid | 564.76
370.29 K, Liquid | 565.83
373.91 K, Liquid | 569.68
375 K, Liquid | 580.96
377.39 K, Liquid | 643.17
